Marks after values point to notes of the source that are not given here.
Columns and labels:
[1] = pH recovery of calcium carbonate slurry after lowering to pH 8 with CO2 enriched air (Example 1); assay type: physicochemical
Description: The pH of the aqueous suspension may be measured using any conventional pH meter. […] This may be carried out using either a manual or automatic method, depending on the type of instrument being used.
(§1) The pH of the aqueous suspension may be measured by: • mixing a sample of the aqueous suspension to ensure homogeneity, by using either the bench stirrer or the rotating rollers, or by shaking the sample container and contents vigorously; • measuring the temperature of the sample and adjusting the temperature to 22° C.; • removing the pH electrode from its deionised water storage solution and immersing it carefully into the test slurry; • waiting until a stable pH reading is obtained; • recording the pH value of the undisturbed slurry. Viscosity
1 kg samples of a calcium carbonate slurry having 78 wt % solids and 60% of particles less than 2 μm in size (measured using a micrometrics sedigraph) were adjusted to […] at room temperature using 2-amino-2-methyl-1-propanol (AMP) or dimethylethanolamine (DMEA). The control sample was adjusted to pH 10 using dilute sodium hydroxide solution. The solids content of the samples was adjusted using deionised water.
The pH of each slurry was lowered to pH 8 by aspirating the sample with carbon dioxide (CO2) enriched air (2%) using a flow rate of 5 mL/min. When pH 8 had been reached, aspiration of the sample was stopped.
Recovery of the sample pH was then monitored and recorded over subsequent days using the Mettler Toledo FE20 pH meter as described above in the detailed description.

[2] = pH of calcium carbonate slurry after sequential 50 mg/kg additions (Example 2); assay type: physicochemical; conditions: for δ pH: change per 50 mg/kg aliquot
Description: The pH of the aqueous suspension may be measured using any conventional pH meter. For example, the pH of the aqueous suspension may be measured using the Digital pH meter “Mettler Toledo FE20”, which has been calibrated in accordance with the manufacturer's instructions, using buffer solutions with nominal values of 4, 7 and 9. This may be carried out using either a manual or automatic method, depending on the type of instrument being used.
as §1
50 mg/kg aliquots of either AMP or DMEA were sequentially added to 250 g calcium carbonate slurry samples having 78 wt % solids and 60% of particles less than 2 μm in size (measured using a micrometrics sedigraph). In this context, 50 mg/kg means that 50 mg of AMP or DMEA was added per kg of dry inorganic particulate material in the aqueous suspension. The pH of the samples was measured after stirring immediately after each 50 mg/kg addition.

[3] = test system: microbes in contaminated calcium carbonate slurry; experiment: Total viable count of contaminated calcium carbonate slurry (Examples 3-5); assay type: cell-based, bacteria; conditions: for level of microbes compared with samples comprising no DMEA: 400, 500 and 600 ppm DMEA alone
Experimental: The microbe level, for example the total viable count, of the aqueous suspension may be measured using growth medium such as Petrifilm or dipslides. The material under test (for example the aqueous suspension of inorganic particulate material) is diluted with a buffer solution and a measured amount of the dilution is placed on a growth medium (for example, Petrifilm). This is incubated for 48 hours, after which time the number of colonies of bacteria is counted. Each colony has developed from one single bacterium or colony forming unit (cfu). Therefore, the number of colonies, multiplied by the dilution factor, is equivalent to the number of original colony forming units per gram or millilitre of slurry.
For example, the total viable count of an aqueous suspension may be measured by: • mixing a sample of aqueous suspension of inorganic particulate material thoroughly by shaking its container vigorously; • measuring the required weight or volume of the sample. For example, if the results are to be recorded as colony forming units per g (cfu/g), a container containing the buffer solution is placed on the balance and the balance is set to zero. Approximately 1 g of slurry is weighed into the container and its weight is recorded to within 0.1 g. The contents of the container are mixed by shaking it vigorously. If the results are to be recorded as colony forming units per ml (cfu/ml), 1 ml of slurry may be added to a container containing the buffer solution. The contents of the container are mixed by shaking it vigorously; • distributing the diluted sample evenly on the growth medium. The plate may be left undisturbed for at least one minute to allow the gel to solidify; • incubating the contents of the growth medium (for example Petrifilm plates) for 48 hours±2 hours at 30° C.±2° C.; • counting the number of colonies on the growth medium (for example Petrifilm); • calculating the total viable count of the sample by multiplying the number of colonies on the growth medium (for example Petrifilm) by the dilution factor and dividing this by the weight or volume of the sample which was plated on the growth medium. For example:
(§2) Samples of a contaminated calcium carbonate slurry having 78 wt % solids and 60% of particles less than 2 μm in size (measured using a micrometrics sedigraph) comprising various amounts of the biocide glutaraldehyde, and DMEA were prepared. The total viable count (cfu/ml) of each sample was measured after 0, 1 and 7 days by the method described above in the detailed description.
Samples of a contaminated calcium carbonate slurry having 78 wt % solids and 60% of particles less than 2 μm in size (measured using a micrometrics sedigraph) comprising various amounts of DMEA and the biocides benzisothiazolinone (BIT) and methylisothiazolinone (MIT) were prepared. The total viable count (cfu/ml) of each sample was measured after 0, 1 and 7 days by the method described above in the detailed description.
as §2, with “of” for “of the biocide glutaraldehyde, and”

[4] = day 0.5, lowered to pH 8 with CO2
[5] = total 50 mg/kg of chemical added
[6] = total 100 mg/kg of chemical added
[7] = total 150 mg/kg of chemical added
[8] = total 200 mg/kg of chemical added
[9] = total 250 mg/kg of chemical added
[10] = total 300 mg/kg of chemical added
[11] = total 350 mg/kg of chemical added
[12] = total 400 mg/kg of chemical added
[13] = total 450 mg/kg of chemical added
[14] = total 500 mg/kg of chemical added
[15] = total 550 mg/kg of chemical added
[16] = total 600 mg/kg of chemical added

SMILES: CC(C)(N)CO [AMP, 2-amino-2-methyl-1-propanol, reference compound]
- pH of sample ([1]; day 0, before CO2 aspiration): 9.50
- δ pH ([1]; day 0.5): 0.00
- pH of sample [1, 4]: 8.00
- pH of sample ([1]; day 1): 8.16
- δ pH ([1]; day 1): 0.13
- pH of sample ([1]; day 2): 8.26
- δ pH ([1]; day 2): 0.23
- pH of sample ([1]; day 16): 8.46
- δ pH ([1]; day 16): 0.43
- pH of sample ([1]; day 20): 8.50
- δ pH ([1]; day 20): 0.47
- pH of sample ([1]; day 23): 8.52
- δ pH ([1]; day 23): 0.49
- pH of sample ([1]; day 24): 8.58
- δ pH ([1]; day 24): 0.55
- pH of sample ([1]; day 27): 8.61
- δ pH ([1]; day 27): 0.58
- pH of sample ([1]; day 28): 8.66
- δ pH ([1]; day 28): 0.66
- δ pH ([2]; total 50 mg/kg added): 0.27
- pH of sample [2, 5]: 9.28
- δ pH ([2]; total 100 mg/kg added): 0.21
- pH of sample [2, 6]: 9.49
- δ pH ([2]; total 150 mg/kg added): 0.15
- pH of sample [2, 7]: 9.64
- δ pH ([2]; total 200 mg/kg added): 0.14
- pH of sample [2, 8]: 9.78
- δ pH ([2]; total 250 mg/kg added): 0.14
- pH of sample [2, 9]: 9.92
- δ pH ([2]; total 300 mg/kg added): 0.09
- pH of sample [2, 10]: 10.01
- δ pH ([2]; total 350 mg/kg added): 0.07
- pH of sample [2, 11]: 10.08
- δ pH ([2]; total 400 mg/kg added): 0.07
- pH of sample [2, 12]: 10.15
- δ pH ([2]; total 450 mg/kg added): 0.07
- pH of sample [2, 13]: 10.22
- δ pH ([2]; total 500 mg/kg added): 0.05
- pH of sample [2, 14]: 10.27
- δ pH ([2]; total 550 mg/kg added): 0.05
- pH of sample [2, 15]: 10.32
- δ pH ([2]; total 600 mg/kg added): 0.05
- pH of sample [2, 16]: 10.37

SMILES: CN(C)CCO [DMEA, Dimethylethanolamine]
- pH of sample ([1]; day 0, before CO2 aspiration): 10.00
- δ pH ([1]; day 0.5): 0.00
- pH of sample [1, 4]: 8.00
- pH of sample ([1]; day 1): 8.22
- δ pH ([1]; day 1): 0.22
- pH of sample ([1]; day 2): 8.28
- δ pH ([1]; day 2): 0.28
- pH of sample ([1]; day 3): 8.35
- δ pH ([1]; day 3): 0.35
- pH of sample ([1]; day 4): 8.43
- δ pH ([1]; day 4): 0.43
- pH of sample ([1]; day 9): 8.52
- δ pH ([1]; day 9): 0.52
- pH of sample ([1]; day 11): 8.55
- δ pH ([1]; day 11): 0.55
- pH of sample ([1]; day 16): 8.58
- δ pH ([1]; day 16): 0.58
- pH of sample ([1]; day 20): 8.60
- δ pH ([1]; day 20): 0.60
- pH of sample ([1]; day 23): 8.64
- δ pH ([1]; day 23): 0.64
- pH of sample ([1]; day 24): 8.65
- δ pH ([1]; day 24): 0.65
- pH of sample ([1]; day 27): 8.70
- δ pH ([1]; day 27): 0.70
- pH of sample ([1]; day 28): 8.79
- δ pH ([1]; day 28): 0.79
- pH recovery compared with sample comprising AMP and control sample ([1]; recovery from pH 8): increased more rapidly and to a higher level
- pH the sample increased to ([1]; recovery from pH 8, end of monitoring, control sample 8.3): 8.8
- δ pH ([2]; total 50 mg/kg added): 0.25
- pH of sample [2, 5]: 9.19
- δ pH ([2]; total 100 mg/kg added): 0.17
- pH of sample [2, 6]: 9.36
- δ pH ([2]; total 150 mg/kg added): 0.13
- pH of sample [2, 7]: 9.49
- δ pH ([2]; total 200 mg/kg added): 0.11
- pH of sample [2, 8]: 9.60
- δ pH ([2]; total 250 mg/kg added): 0.07
- pH of sample [2, 9]: 9.67
- δ pH ([2]; total 300 mg/kg added): 0.07
- pH of sample [2, 10]: 9.74
- δ pH ([2]; total 350 mg/kg added): 0.06
- pH of sample [2, 11]: 9.80
- δ pH ([2]; total 400 mg/kg added): 0.05
- pH of sample [2, 12]: 9.85
- δ pH ([2]; total 450 mg/kg added): 0.05
- pH of sample [2, 13]: 9.90
- δ pH ([2]; total 500 mg/kg added): 0.05
- pH of sample [2, 14]: 9.95
- δ pH ([2]; total 550 mg/kg added): 0.04
- pH of sample [2, 15]: 9.99
- δ pH ([2]; total 600 mg/kg added): 0.02
- pH of sample [2, 16]: 10.01
- level of microbes compared with samples comprising no DMEA ([3]; after 0 days): slightly reduced the level of microbes
- level of microbes compared with samples comprising no DMEA ([3]; after 1 day and 7 days): further reduced the level of microbes
- Total Viable Count (cfu/ml) of sample as 10^x, x ([3]; 400 ppm DMEA in sample, 0 days after preparation): 5 cfu/ml as 10^x
- Total Viable Count (cfu/ml) of sample as 10^x, x ([3]; 400 ppm DMEA in sample, 1 day after preparation): 4 cfu/ml as 10^x
- Total Viable Count (cfu/ml) of sample as 10^x, x ([3]; 400 ppm DMEA in sample, 7 days after preparation): 0.1 cfu/ml as 10^x
- Total Viable Count (cfu/ml) of sample as 10^x, x ([3]; 500 ppm DMEA in sample, 0 days after preparation): 5 cfu/ml as 10^x
- Total Viable Count (cfu/ml) of sample as 10^x, x ([3]; 500 ppm DMEA in sample, 1 day after preparation): 4 cfu/ml as 10^x
- Total Viable Count (cfu/ml) of sample as 10^x, x ([3]; 500 ppm DMEA in sample, 7 days after preparation): 0.1 cfu/ml as 10^x
- Total Viable Count (cfu/ml) of sample as 10^x, x ([3]; 600 ppm DMEA in sample, 0 days after preparation): 5 cfu/ml as 10^x
- Total Viable Count (cfu/ml) of sample as 10^x, x ([3]; 600 ppm DMEA in sample, 1 day after preparation): 4 cfu/ml as 10^x
- Total Viable Count (cfu/ml) of sample as 10^x, x ([3]; 600 ppm DMEA in sample, 7 days after preparation): 0.1 cfu/ml as 10^x
- reducing total viable count compared with glutaraldehyde alone ([3]; DMEA in combination with 50, 100 or 400 ppm glutaraldehyde, after 1 and 7 days): at least as effective
- total viable count compared with glutaraldehyde alone ([3]; DMEA in combination with 50 ppm glutaraldehyde, after 0 days): lower total viable count
- total viable count compared with BIT/MIT but no DMEA ([3]; DMEA in combination with 81, 162 or 650 ppm BIT/MIT, after 1 day and 7 days): lower total viable count
